Test results as given in patent US20250026778A1 (TIUMBIO CO., LTD., priority 2021, published 2025).
Where two headings read alike, the source gives them in different places.

Target: T1, his-galectin-3 (Homo sapiens, UniProt P17931)
T1 construct: purchased Abcam
Test: TR-FRET assay (in vitro galectin-3 binding inhibitory activity test)
Conditions: compound at 20 μM, 60 nM his-galectin-3, 15 nM biotin-ASF
Procedure: TR-FRET Assay (In Vitro Galectin-3 Binding Inhibitory Activity Test)
TR-FRET assay was performed in ½ Area Plate-96 (PerkinElmer). Final concentrations of components in the assay were 60 nM his-galectin-3 (Abcam), 15 nM biotin-ASF (Axxora), 2 nM Mab anti-6×His Tb (Cisbio) and 20 nM SA-d2 (Cisbio). The reaction was performed in a buffer containing 25 mM HEPES, 100 mM NaCl, 0.005% Tween 20 and 0.05% BSA. 20 μL his-galectin-3 and 1 μL compound were mixed first, and then 20 μL biotin-ASF, 5 μL anti-His Tb and 5 μL SA-d2 were added in order. After incubation for at least 3.5 hours at RT, TR-FRET signals were measured at 615/665 nm […] wavelengths using a VICTOR Nivo (PerkinElmer). The positive control used DMSO instead of the compound, and the negative control excluded ASF-biotin. N-acetyl-D-lactosamine (LacNAc), an endogenous ligand unit of galectin-3, was evaluated together as a control substance to compare galectin-3 binding inhibitory activity.

[1] = Table 1, read-out: % Inhibitory activity (at 20 μM)
[2] = read-out: % Inhibitory activity (at 20 μM), Table 1

T1 sequence (P17931 whole entry): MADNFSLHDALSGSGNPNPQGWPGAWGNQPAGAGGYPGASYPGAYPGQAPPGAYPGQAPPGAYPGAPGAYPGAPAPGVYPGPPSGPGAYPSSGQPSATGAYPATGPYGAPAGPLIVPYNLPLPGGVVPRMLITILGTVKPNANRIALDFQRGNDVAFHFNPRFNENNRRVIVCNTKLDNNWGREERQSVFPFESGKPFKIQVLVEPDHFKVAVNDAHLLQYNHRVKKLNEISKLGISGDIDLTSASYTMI

SMILES | inhibition at 20 µM [1] [%] | further results
COc1cccc(C(=O)O[C@@H]2[C@@H](n3cc(-c4cc(F)c(F)c(F)c4)nn3)[C@@H](O)[C@@H](CO)O[C@@]23CCCO3)c1 [Compound A40, (5S,7R,8R,9S,10R)-8-hydroxy-7-(hydroxymethyl)-9-(4-(3,4,5-trifluorophenyl)-1H-1,2,3-triazol-1-yl)-1,6-dioxaspiro[4.5]decan-10-yl 3-methoxybenzoate] | 25 to 50 | –
O=C(O[C@H]1[C@@H](n2cc(-c3cc(F)c(F)c(F)c3)nn2)[C@@H](O)[C@@H](CO)O[C@@]12CCCO2)c1ccccc1 [Compound A42, (5S,7R,8R,9S,10S)-8-hydroxy-7-(hydroxymethyl)-9-(4-(3,4,5-trifluorophenyl)-1H-1,2,3-triazol-1-yl)-1,6-dioxaspiro[4.5]decan-10-yl benzoate] | – | inhibition at 20 µM [2]: < 25%
OC[C@H]1O[C@@]2(CCCCO2)[C@H](OCc2ccc3c(c2)OCO3)[C@@H](n2cc(-c3cc(F)c(F)c(F)c3)nn2)[C@H]1O [Compound A44, (2R,3R,4S,5R,6S)-5-(benzo[d][1,3]dioxol-5-ylmethoxy)-2-(hydroxymethyl)-4-(4-(3,4,5-trifluorophenyl)-1H-1,2,3-triazol-1-yl)-1,7-dioxaspiro[5.5]undecan-3-ol] | 25 to 50 | –
OC[C@H]1O[C@@]2(CCCCO2)[C@H](OCc2nn[nH]n2)[C@@H](n2cc(-c3cc(F)c(F)c(F)c3)nn2)[C@H]1O [Compound A45, (2R,3R,4S,5R,6S)-5-((2H-tetrazol-5-yl)methoxy)-2-(hydroxymethyl)-4-(4-(3,4,5-trifluorophenyl)-1H-1,2,3-triazol-1-yl)-1,7-dioxaspiro[5.5]undecan-3-ol] | 50 to 75 | –
OC[C@H]1O[C@@]2(CCCCO2)[C@H](OCC(F)F)[C@@H](n2cc(-c3cc(F)c(F)c(F)c3)nn2)[C@H]1O [Compound A46, (2R,3R,4S,5R,6S)-5-(2,2-difluoroethoxy)-2-(hydroxymethyl)-4-(4-(3,4,5-trifluorophenyl)-1H-1,2,3-triazol-1-yl)-1,7-dioxaspiro[5.5]undecan-3-ol] | 25 to 50 | –
OC[C@H]1O[C@@]2(CCCCO2)[C@H](OCc2ccccc2O)[C@@H](n2cc(-c3cc(F)c(F)c(F)c3)nn2)[C@H]1O [Compound A47, (2R,3R,4S,5R,6S)-5-((2-hydroxybenzyl)oxy)-2-(hydroxymethyl)-4-(4-(3,4,5-trifluorophenyl)-1H-1,2,3-triazol-1-yl)-1,7-dioxaspiro[5.5]undecan-3-ol] | 25 to 50 | –
OC[C@H]1O[C@@]2(CCCCO2)[C@H](OCc2cccc(F)c2)[C@@H](n2cc(-c3cc(F)c(F)c(F)c3)nn2)[C@H]1O [Compound A48, (2R,3R,4S,5R,6S)-5-((3-fluorobenzyl)oxy)-2-(hydroxymethyl)-4-(4-(3,4,5-trifluorophenyl)-1H-1,2,3-triazol-1-yl)-1,7-dioxaspiro[5.5]undecan-3-ol] | 25 to 50 | inhibition at 20 µM (Table 3, found values, read-out: % Inhibitory activity (at 20 μM)): 43.7%
OC[C@H]1O[C@@]2(CCCCO2)[C@H](OCc2cccc(C(F)(F)F)c2)[C@@H](n2cc(-c3cc(F)c(F)c(F)c3)nn2)[C@H]1O [Compound A49, (2R,3R,4S,5R,6S)-2-(hydroxymethyl)-5-((3-(trifluoromethyl)benzyl)oxy)-4-(4-(3,4,5-trifluorophenyl)-1H-1,2,3-triazol-1-yl)-1,7-dioxaspiro[5.5]undecan-3-ol] | 25 to 50 | –
OC[C@H]1O[C@@]2(CCCCO2)[C@H](OCc2ccccn2)[C@@H](n2cc(-c3cc(F)c(F)c(F)c3)nn2)[C@H]1O [Compound A50, (2R,3R,4S,5R,6S)-2-(hydroxymethyl)-5-(pyridin-2-ylmethoxy)-4-(4-(3,4,5-trifluorophenyl)-1H-1,2,3-triazol-1-yl)-1,7-dioxaspiro[5.5]undecan-3-ol] | 25 to 50 | –
O=C(O[C@@H]1[C@@H](n2cc(-c3cc(F)c(F)c(F)c3)nn2)[C@@H](O)[C@@H](CO)O[C@@]12CCCCO2)c1cccc(F)c1 [Compound A51, (2R,3R,4S,5R,6S)-3-hydroxy-2-(hydroxymethyl)-4-(4-(3,4,5-trifluorophenyl)-1H-1,2,3-triazol-1-yl)-1,7-dioxaspiro[5.5]undecan-5-yl 3-fluorobenzoate] | 25 to 50 | –
O=C(O[C@@H]1[C@@H](n2cc(-c3cc(F)c(F)c(F)c3)nn2)[C@@H](O)[C@@H](CO)O[C@@]12CCCCO2)c1cccc(C(F)(F)F)c1 [Compound A52, (2R,3R,4S,5R,6S)-3-hydroxy-2-(hydroxymethyl)-4-(4-(3,4,5-trifluorophenyl)-1H-1,2,3-triazol-1-yl)-1,7-dioxaspiro[5.5]undecan-5-yl 3-(trifluoromethyl)benzoate] | < 25 | –
COc1cccc(C(=O)O[C@@H]2[C@@H](n3cc(-c4cc(F)c(F)c(F)c4)nn3)[C@@H](O)[C@@H](CO)O[C@@]23CCCCO3)c1 [Compound A53, (2R,3R,4S,5R,6S)-3-hydroxy-2-(hydroxymethyl)-4-(4-(3,4,5-trifluorophenyl)-1H-1,2,3-triazol-1-yl)-1,7-dioxaspiro[5.5]undecan-5-yl 3-methoxybenzoate] | 25 to 50 | –
O=C(O)CO[C@@H]1[C@@H](n2cc(-c3cc(F)c(F)c(F)c3)nn2)[C@@H](O)[C@@H](CO)O[C@@]12CCCCO2 [Compound A54, 2-(((2R,3R,4S,5R,6S)-3-hydroxy-2-(hydroxymethyl)-4-(4-(3,4,5-trifluorophenyl)-1H-1,2,3-triazol-1-yl)-1,7-dioxaspiro[5.5]undecan-5-yl)oxy)acetic acid] | – | inhibition at 20 µM [2]: 25 to 50%
CC(O[C@@H]1[C@@H](n2cc(-c3cc(F)c(F)c(F)c3)nn2)[C@@H](O)[C@@H](CO)O[C@@]12CCCCO2)C(=O)O (stereo partly drawn) [Compound A55, 2-(((2R,3R,4S,5R,6S)-3-hydroxy-2-(hydroxymethyl)-4-(4-(3,4,5-trifluorophenyl)-1H-1,2,3-triazol-1-yl)-1,7-dioxaspiro[5.5]undecan-5-yl)oxy)propanoic acid] | – | inhibition at 20 µM [2]: 50 to 75%; inhibition at 20 µM (read-out: % Inhibitory activity (at 20 μM), Table 3, found values): 60%
N[C@@H]1CCO[C@]12O[C@H](CO)[C@H](O)[C@H](n1cc(-c3cc(F)c(F)c(F)c3)nn1)[C@H]2O [Compound A56, (4R,5S,7R,8R,9S,10R)-4-amino-7-(hydroxymethyl)-9-(4-(3,4,5-trifluorophenyl)-1H-1,2,3-triazol-1-yl)-1,6-dioxaspiro[4.5]decane-8,10-diol] | < 25 | –
O=C(O[C@@H]1[C@@H](n2cc(-c3cc(F)c(F)c(F)c3)nn2)[C@@H](O)[C@@H](CO)O[C@@]12CCCCO2)c1ccccn1 [Compound A57] | – | inhibition at 20 µM [2]: 50 to 75%
OC[C@H]1O[C@@]2(CCCCO2)[C@H](OCc2cccnc2)[C@@H](n2cc(-c3cc(F)c(F)c(F)c3)nn2)[C@H]1O [Compound A58, (2R,3R,4S,5R,6S)-2-(hydroxymethyl)-5-(pyridin-3-ylmethoxy)-4-(4-(3,4,5-trifluorophenyl)-1H-1,2,3-triazol-1-yl)-1,7-dioxaspiro[5.5]undecan-3-ol] | 25 to 50 | –
Cc1ccc(S(=O)(=O)O[C@@H]2[C@@H](n3cc(-c4cc(F)c(F)c(F)c4)nn3)[C@@H](O)[C@@H](CO)O[C@@]23CCCO3)cc1 [Compound A59, (5S,7R,8R,9S,10R)-8-hydroxy-7-(hydroxymethyl)-9-(4-(3,4,5-trifluorophenyl)-1H-1,2,3-triazol-1-yl)-1,6-dioxaspiro[4.5]decan-10-yl 4-methylbenzenesulfonate] | – | inhibition at 20 µM [2]: 25 to 50%
O=C(N[C@@H]1CCO[C@]12O[C@H](CO)[C@H](O)[C@H](n1cc(-c3cc(F)c(F)c(F)c3)nn1)[C@H]2O)c1cccc(F)c1 [Compound A60, N-((4R,5S,7R,8R,9S,10R)-8,10-dihydroxy-7-(hydroxymethyl)-9-(4-(3,4,5-trifluorophenyl)-1H-1,2,3-triazol-1-yl)-1,6-dioxaspiro[4.5]decan-4-yl)-3-fluorobenzamide] | < 25 | –
O=C(O[C@@H]1[C@@H](n2cc(-c3cc(F)c(F)c(F)c3)nn2)[C@@H](O)[C@@H](CO)O[C@@]12CCCCO2)c1cccnc1 [Compound A61, (2R,3R,4S,5R,6S)-3-hydroxy-2-(hydroxymethyl)-4-(4-(3,4,5-trifluorophenyl)-1H-1,2,3-triazol-1-yl)-1,7-dioxaspiro[5.5]undecan-5-yl nicotinate] | – | inhibition at 20 µM [2]: 25 to 50%
OC[C@H]1O[C@]2(OCC[C@H]2NCc2cccc(F)c2)[C@H](O)[C@@H](n2cc(-c3cc(F)c(F)c(F)c3)nn2)[C@H]1O [Compound A62, (4R,5S,7R,8R,9S,10R)-4-((3-fluorobenzyl)amino)-7-(hydroxymethyl)-9-(4-(3,4,5-trifluorophenyl)-1H-1,2,3-triazol-1-yl)-1,6-dioxaspiro[4.5]decane-8,10-diol] | 50 to 75 | –
OC[C@H]1O[C@]2(OCC[C@H]2NCc2c(O)ccc(F)c2F)[C@H](O)[C@@H](n2cc(-c3cc(F)c(F)c(F)c3)nn2)[C@H]1O [Compound A63, (4R,5S,7R,8R,9S,10R)-4-((2,3-difluoro-6-hydroxybenzyl)amino)-7-(hydroxymethyl)-9-(4-(3,4,5-trifluorophenyl)-1H-1,2,3-triazol-1-yl)-1,6-dioxaspiro[4.5]decane-8,10-diol] | < 25 | –
